Bounds are passed on as bounds.

We go through 1 molecule from patent US20140066620A1, “PYRIMIDINE SUBSTITUTED PURINE DERIVATIVES” (VERASTEM, INC., priority 2007, published 2014).

One test concerns the target T1, Truncated mTOR kinase (Homo sapiens, UniProt P42345).
T1 construct: Truncated mTOR kinase and His-tagged 4eBP1 were produced in-house
Nature of the test: mTOR Assay (radiometric phosphorylation of 4eBP1). Format: biochemical. The note with it: 4eBP1 substrate, 10 μM ATP, 1 hour at room temperature. On the procedure: Truncated mTOR kinase and His-tagged 4eBP1 were produced in-house. [γ^33P]-ATP was purchased from Amersham (GE Healthcare). All chemicals, unless otherwise stated, were from Sigma-Aldrich.
Phosphorylation assays were initially performed in a final volume of 20 μL in 384-well polypropylene plate (Greiner). […] The reaction was initiated by adding 10 μL/well of 20 μM ATP solution (final assay concentration 10 μM ATP and 0.4 μCi/well of [γhu 33P]-ATP). After 1 hour incubation at room temperature, the reaction was terminated with 40 μL/well of 20 mM EDTA/1 mM ATP solution.
50 μL/well of the stopped reaction mix was then transferred to 384-well MultiScreenHTS-PH filter plate (Millipore) pre-added with 50 μL/well of 1% phosphoric acid. The plate was washed 4 times with 120 μL/well of 0.5% phosphoric acid via vacuum filtration. Finally, 10 μL/well of Optiphase™ SuperMix liquid scintillation cocktail (Perkin Elmer) was added. After minimum 1 hour of incubation, counting was performed in a Wallac MicroBeta TriLux scintillation counter using coincidence counting mode with crosstalk correction.

In test [1] the target is T2, Recombinant PI3K p110α/p85 (Homo sapiens, UniProt P42336).
T2 construct: made in house
Nature of the test: PI3K Assay (radiometric lipid kinase assay). The format is biochemical. The note with it: p110α/p85, 2 μM ATP, 1 hour at RT; read-out: IC50 (PI3Kα). As for the experimental part:
Recombinant PI3K p110α/p85 was prepared in-house. Phosphatidylinositol (PtdIns), phosphotidylserine (PtdSer) and all other unspecified chemicals were purchased from Sigma-Aldrich. [γ^33P]ATP and Optiphase scintillant were obtained from Perkin Elmer.
Assays were performed in a final assay volume of 25 μL in 384-well Maxisorp plates (Nunc). […] Maxisorp plates were coated with 20 μL/well of a 1:1 mixture of PtdIns and PtdSer [0.1 mg/mL each dissolved in chloroform:ethanol (3:7)] and left overnight in a fume hood at room temperature (RT) to dry.
The reaction was incubated for 1 hour at RT and terminated with 30 μL/well of 50 mM EDTA solution. The plate was then washed twice with TBS, dried, and added with 30 μL/well of scintillant before it was counted in a MicroBeta Trilux.

In the next test the test system is DU145 cells. Nature of the test: Cell-based proliferation assay, DU145. The note with it: Homo sapiens, DU-145, 96 h treatment, Celltiter96 Aqueous One Solution. On the procedure: Human cancer cell lines PC3 and DU145 (human prostate cancer cell lines), were obtained from ATCC. They were cultured in the media according to the ATCC work instructions. PC3 and DU145 cells were seeded at 1,000 cells per well in 96-well plates, respectively. The plates were incubated at 37° C., 5% CO2, for 24 h. Cells were treated with compounds at various concentrations for 96 h. Cell proliferation was then quantified using Celltiter96 Aqueous One Solution Cell Proliferation Assay from Promega (Madison Wis.). Dose response curves were plotted to determine IC50 values for the compounds using XL-fit (ID Business Solution, Emeryville, Calif.).

T1 sequence (P42345 2156-2549 limits assumed): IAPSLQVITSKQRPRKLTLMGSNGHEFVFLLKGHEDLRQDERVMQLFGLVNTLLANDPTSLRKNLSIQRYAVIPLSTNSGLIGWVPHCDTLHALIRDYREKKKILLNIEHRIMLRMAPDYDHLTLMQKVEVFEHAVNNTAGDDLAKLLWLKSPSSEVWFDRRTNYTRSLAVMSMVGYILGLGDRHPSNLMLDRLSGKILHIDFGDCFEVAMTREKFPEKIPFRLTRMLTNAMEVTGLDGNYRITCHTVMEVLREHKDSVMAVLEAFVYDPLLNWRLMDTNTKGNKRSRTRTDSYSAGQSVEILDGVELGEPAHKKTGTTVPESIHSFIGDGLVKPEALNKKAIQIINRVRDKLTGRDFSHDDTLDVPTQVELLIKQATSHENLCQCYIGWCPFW
T2 sequence (P42336 whole entry): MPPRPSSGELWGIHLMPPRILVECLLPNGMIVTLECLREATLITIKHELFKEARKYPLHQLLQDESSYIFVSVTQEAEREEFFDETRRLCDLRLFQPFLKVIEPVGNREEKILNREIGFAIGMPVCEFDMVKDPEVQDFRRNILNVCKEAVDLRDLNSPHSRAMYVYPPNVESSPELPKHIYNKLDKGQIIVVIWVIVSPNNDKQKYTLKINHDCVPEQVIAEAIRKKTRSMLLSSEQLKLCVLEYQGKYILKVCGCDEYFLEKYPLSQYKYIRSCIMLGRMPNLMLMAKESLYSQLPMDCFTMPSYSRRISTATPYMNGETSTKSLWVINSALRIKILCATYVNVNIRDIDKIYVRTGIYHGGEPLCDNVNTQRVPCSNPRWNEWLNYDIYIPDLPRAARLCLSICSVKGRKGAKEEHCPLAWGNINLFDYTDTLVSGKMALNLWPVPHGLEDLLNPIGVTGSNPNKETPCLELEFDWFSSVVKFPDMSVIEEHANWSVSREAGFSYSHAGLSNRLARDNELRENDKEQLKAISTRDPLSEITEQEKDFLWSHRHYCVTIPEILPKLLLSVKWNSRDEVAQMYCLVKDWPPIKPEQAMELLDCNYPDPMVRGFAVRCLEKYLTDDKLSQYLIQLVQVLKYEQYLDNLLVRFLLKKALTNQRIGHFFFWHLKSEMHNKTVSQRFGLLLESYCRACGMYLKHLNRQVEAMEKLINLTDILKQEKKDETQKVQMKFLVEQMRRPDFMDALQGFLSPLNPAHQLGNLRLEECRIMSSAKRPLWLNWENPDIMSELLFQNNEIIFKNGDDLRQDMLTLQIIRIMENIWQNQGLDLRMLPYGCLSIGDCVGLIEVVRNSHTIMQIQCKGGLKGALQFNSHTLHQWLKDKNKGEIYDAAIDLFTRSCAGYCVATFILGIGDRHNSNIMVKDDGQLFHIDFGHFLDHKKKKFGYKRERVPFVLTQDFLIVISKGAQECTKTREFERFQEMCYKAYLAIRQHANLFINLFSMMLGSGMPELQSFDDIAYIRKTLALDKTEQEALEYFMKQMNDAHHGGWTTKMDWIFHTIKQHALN
T2 sequence (P27986 whole entry partner): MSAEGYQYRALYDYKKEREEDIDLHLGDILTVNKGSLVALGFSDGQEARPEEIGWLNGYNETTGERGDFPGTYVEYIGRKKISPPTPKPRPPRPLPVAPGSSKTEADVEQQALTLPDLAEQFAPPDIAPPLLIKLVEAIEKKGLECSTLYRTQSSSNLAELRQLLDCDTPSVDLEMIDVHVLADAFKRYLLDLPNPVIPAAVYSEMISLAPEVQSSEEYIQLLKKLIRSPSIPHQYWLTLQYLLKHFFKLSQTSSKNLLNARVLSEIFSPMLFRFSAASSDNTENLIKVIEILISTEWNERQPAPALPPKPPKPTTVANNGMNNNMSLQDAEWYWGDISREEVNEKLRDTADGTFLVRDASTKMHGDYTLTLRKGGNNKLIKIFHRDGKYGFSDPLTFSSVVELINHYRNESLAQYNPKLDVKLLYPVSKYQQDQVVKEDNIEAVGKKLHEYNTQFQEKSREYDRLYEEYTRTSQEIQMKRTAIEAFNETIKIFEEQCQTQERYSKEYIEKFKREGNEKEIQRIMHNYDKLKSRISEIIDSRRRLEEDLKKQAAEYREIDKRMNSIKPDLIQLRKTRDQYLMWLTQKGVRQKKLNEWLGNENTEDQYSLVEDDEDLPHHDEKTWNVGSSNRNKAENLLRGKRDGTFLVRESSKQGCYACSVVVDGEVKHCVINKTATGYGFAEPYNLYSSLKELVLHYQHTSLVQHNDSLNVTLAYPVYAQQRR

For orientation: IC50 means the midpoint of a concentration-inhibition curve. Regarding `Nc1ncc(-c2nc(N3CCOCC3)nc3c2ncn3CC2CC2)cn1` [Compound 3], the concentration for half-maximal inhibition (IC50) against Truncated mTOR kinase is below 1 µM; in test [1], below 1 µM; in the test with DU145 cells, 1 to 5 µM.
